PubChem BioAssay AID977621 (Broad Institute, 2014)
Inconclusive results are not listed. The source made the active and inactive calls.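 Rule for the calls: active = Wild-type ribosome reporter drop at least double the humanized mutant ribosome reporter drop, growth loss under a set limit; inconclusive = no clear call, values can overlap the other calls; inactive = the rest.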

tested on: E. coli wild-type GFP strain growth, fluorescence, 24 h; experiment: growth inhibition of wild-type GFP E. coli, dose response, H69 mutant RFP, cherry-pick (AID 977621); settings: not given;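 note: wild-type GFP and H69 mutant RFP strains grown together 50/50 in each well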

| SMILES | AC50 |
| --- | --- |
| CCN(CC)CCn1c(SCC(=O)Nc2cccc(OC)c2)nc2c(sc3ccccc32)c1=O | > 100 µM (inactive) |
| CCOc1ccc(CCNC(=O)CN2C(=O)CCSc3ccccc32)cc1 | > 100 µM (inactive) |
| NC(=O)c1sc2nnc(-c3ccccc3)c(-c3ccccc3)c2c1N | > 100 µM (inactive) |
| COc1ccc(-c2cn3cc(Cl)ccc3n2)cc1OC | > 100 µM (inactive) |
| C=C(C)Cn1c(=O)c2c(nc3n2CCCN3Cc2ccccc2)n(C)c1=O | > 100 µM (inactive) |
| O=C(NCc1ccccc1Cl)[C@H]1CCCN1C(=O)[C@H]1CCCN1C(=O)c1cccc2ccccc12 | > 100 µM (inactive) |
| O=C(c1ccc(Cl)cc1)C1CCCN(Cc2cccc3cnccc23)C1 (stereo unspecified) | > 100 µM (inactive) |
| COc1cccc(OCCNS(=O)(=O)c2ccccc2[N+](=O)[O-])c1 | > 100 µM (inactive) |
| COc1cc(SC)ccc1C(=O)N1CCN(c2ccccc2F)CC1 | > 100 µM (inactive) |
| CC(=O)Nc1ccc(NS(=O)(=O)c2ccc(Cl)s2)cc1 | > 100 µM (inactive) |
| CCCn1c(NCc2ccc3c(c2)OCO3)nc2ccccc21 | > 100 µM (inactive) |
| COc1ccc(Cn2c(=O)c3[nH]cnc3n(-c3ccc(C)cc3)c2=O)cc1 | > 100 µM (inactive) |
| O=C(Nc1ccc2c(c1)OCO2)c1ccc([N+](=O)[O-])cc1[N+](=O)[O-] | > 100 µM (inactive) |
| CCOC(=O)c1[nH]c2ccccc2c1NC(=O)c1ccc(Br)o1 | > 100 µM (inactive) |
| Cc1ccccc1-c1cc(C(=O)NCc2cccs2)n(CC2CC(c3cccnc3)=NO2)n1 (stereo unspecified) | > 100 µM (inactive) |
| COc1ccc(OC)c(-c2nnc3n2N=C(c2ccc(OC)c(OC4CCOC4)c2)CS3)c1 (stereo unspecified) | > 100 µM (inactive) |
| COCc1cc(C)nc(SCC[N+](C)(C)CC(=O)c2ccc(Br)cc2)c1C#N | > 100 µM (inactive) |
| Cc1cc(C)nc(SCc2cn3c(C)cccc3n2)n1 | > 100 µM (inactive) |
| CN(CCOc1ccccc1)C(=O)c1ccc(OC2CCN(C(=O)C3CC3)CC2)cc1 | > 100 µM (inactive) |

same assay, conditions: E. coli mixed culture, 24 h; measured here: total growth OD600, test 2

| SMILES | AC50 |
| --- | --- |
| COc1ccccc1CNC(=O)CN1C(=O)NC(c2ccccc2)(c2ccccc2)C1=O | > 100 µM |
| COc1cc(OC)nc(Oc2ccccc2C(=O)Oc2ccc(C)cc2)n1 | 50.4 µM |
| COc1ccc(-c2cn3cc(Cl)ccc3n2)cc1OC | 27.2 µM |
| O=C(NCc1ccccc1)c1ccc(-c2ccccc2F)o1 | 36.1 µM |
| O=C(NCc1ccccc1Cl)[C@H]1CCCN1C(=O)[C@H]1CCCN1C(=O)c1cccc2ccccc12 | 48 µM |
| CN(C)CCCn1c(=O)n(Cc2ccco2)c(=O)c2c3c(sc21)CCCCC3 | > 100 µM |
| CCCn1c(NCc2ccc3c(c2)OCO3)nc2ccccc21 | 49.9 µM |
| COc1ccc(OCC(O)CNS(=O)(=O)c2cccc(Cl)c2)cc1 (stereo unspecified) | > 100 µM |
| Cc1ccccc1-c1cc(C(=O)NCc2cccs2)n(CC2CC(c3cccnc3)=NO2)n1 (stereo unspecified) | > 100 µM |
| COc1ccc(OC)c(-c2nnc3n2N=C(c2ccc(OC)c(OC4CCOC4)c2)CS3)c1 (stereo unspecified) | > 100 µM |
| CC(C)(C)c1ccc(-c2noc(CCC(=O)NCc3ccco3)n2)cc1 | > 100 µM |

tested on: E. coli H69 humanized mutant ribosome RFP strain growth, fluorescence, 24 h; experiment: as above; settings: test 2

| SMILES | AC50 |
| --- | --- |
| CCN(CC)CCn1c(SCC(=O)Nc2cccc(OC)c2)nc2c(sc3ccccc32)c1=O | > 100 µM |
| COc1ccccc1CNC(=O)CN1C(=O)NC(c2ccccc2)(c2ccccc2)C1=O | 50.3 µM |
| O=C(CSc1nc2ccccc2n1S(=O)(=O)c1cccc([N+](=O)[O-])c1)NCCc1ccccc1 | > 100 µM |
| CCOc1ccc(CCNC(=O)CN2C(=O)CCSc3ccccc32)cc1 | > 100 µM |
| COc1ccc(OC2C(=O)N(Cc3ccc4c(c3)OCO4)C2c2cccs2)cc1 (stereo unspecified) | 47.4 µM |
| Cc1noc(C)c1NC(=O)Nc1ccc2c(c1)C(=O)N([C@@H](C)CO)C[C@@H](C)[C@H](CN(C)C(=O)Nc1ccc3c(c1)OCO3)OCCCC[C@H](C)O2 | > 100 µM |
| COc1cc(OC)nc(Oc2ccccc2C(=O)Oc2ccc(C)cc2)n1 | 51.1 µM |
| Cc1ccc(S(=O)(=O)N(C(=O)c2ccncc2)c2ccc(OC(=O)c3ccncc3)cc2)c(C)c1 | > 100 µM |
| O=C(CCNC(=O)c1ccccc1)Nc1ccc(Cl)c(S(=O)(=O)N2CCCCC2)c1 | 42.6 µM |
| NC(=O)c1sc2nnc(-c3ccccc3)c(-c3ccccc3)c2c1N | > 100 µM |
| Cc1ccc(Cl)cc1N1CCN(C(=O)c2ccc3nc[nH]c3c2)CC1 | 51.4 µM |
| COc1ccc(-c2cn3cc(Cl)ccc3n2)cc1OC | 31.4 µM |
| C=C(C)Cn1c(=O)c2c(nc3n2CCCN3Cc2ccccc2)n(C)c1=O | > 100 µM |
| O=C(CSCc1cnn(-c2ccccc2)c1-n1cccc1)NCc1cccnc1 | 2.13 µM |
| O=C(NCCc1csc(-c2ccccc2)n1)c1ccccc1F | 49 µM |
| O=C(NCc1ccccc1)c1ccc(-c2ccccc2F)o1 | > 100 µM |
| O=C(NCc1ccccc1Cl)[C@H]1CCCN1C(=O)[C@H]1CCCN1C(=O)c1cccc2ccccc12 | > 100 µM |
| Cc1ccc2c(N)c(C(=O)c3ccccc3)sc2n1 | 50.8 µM |
| CCc1cc2c(=O)n(Cc3ccccc3)c(SC3CCOC3=O)nc2s1 (stereo unspecified) | 52.3 µM |
| FC(F)(F)c1ccc(Cl)c(-n2c(Cc3cccs3)n[nH]c2=S)c1 | > 100 µM |
| O=C(c1ccc(Cl)cc1)C1CCCN(Cc2cccc3cnccc23)C1 (stereo unspecified) | > 100 µM |
| CN1CCSc2ccc(C(=O)Nc3cccc(F)c3)cc21 | 0.837 µM |
| Cc1ccccc1-n1nnnc1SCCCC(=O)c1ccc(F)cc1 | 6.72 µM |

| SMILES | AC50 |
| --- | --- |
| CCc1c(N=O)c(-c2ccccc2)n(O)[n+]1[O-] | 6.29 µM |
| O=C(COC(=O)C1CC2C=CC1C2)Nc1ccc([N+](=O)[O-])cc1 (stereo unspecified) | > 100 µM |
| COc1cccc(CNC(=O)CCSCc2ccccc2F)c1 | > 100 µM |
| CC(C)n1nnnc1C1c2ccccc2C(=O)N1CCOc1ccccc1 (stereo unspecified) | 0.989 µM |
| Cc1onc(-c2ccccc2Cl)c1C(=O)OCC(=O)c1ccccc1 | 45.6 µM |
| Cc1nn(C(C)(C)C)c(OC(=O)CC(C)C)c1S(=O)(=O)c1ccccc1 | 30.7 µM |
| COc1ccccc1-c1noc2ncnc(Nc3cccc(C)c3C)c12 | > 100 µM |
| C[C@H]1CN([C@@H](C)CO)C(=O)CCCn2nncc2CO[C@@H]1CN(C)Cc1ccccc1C(F)(F)F | > 100 µM |
| Cc1ccccc1CSc1nnc(-c2ccccn2)n1C | 28.3 µM |
| CCOC(=O)C1CCCN(Cc2c(Cl)cccc2Cl)C1 (stereo unspecified) | 6.66 µM |
| Cn1c(CC2C(=O)Nc3ccc(Br)cc32)nc2ccccc2c1=O (stereo unspecified) | > 100 µM |
| Cc1ccccc1S(=O)(=O)c1cc2ccccc2nc1N | > 100 µM |
| COc1ccccc1NC(=O)CSc1ncc(CO)n1Cc1ccc(F)cc1 | > 100 µM |
| COC(=O)c1ccc(CSc2nc3ccccc3s2)o1 | 39 µM |
| O=C(O)c1cc(-c2ccc(-c3ccc(F)cc3)o2)nc2ccccc12 | 39.6 µM |
| C=CCNC(=O)c1ccccc1CCc1ccccc1 | > 100 µM |
| O=S(=O)(c1cccc(-c2nc3ccccc3s2)c1)N1CCCC1 | > 100 µM |
| O=C1CCCCC1Nc1ccc(Br)cc1 (stereo unspecified) | > 100 µM |
| O=C(Nc1cccc(Oc2ccc3c(c2)C(=O)NC3=O)c1)c1cccs1 | 13 µM |
| CCOc1ccc(S(=O)(=O)N(C)c2ccc(OCC(=O)NCc3cccnc3)cc2)cc1 | > 100 µM |
| Cc1ccccc1Nc1c(-c2cccnc2)nc2ccc(Br)cn12 | > 100 µM |
| Cc1c(CCOC(=O)C23CC4CC(CC(C4)C2)C3)sc[n+]1Cc1ccccc1 | 4.41 µM |
| O=C(O)c1cc(-c2cccs2)nn1-c1cccc(Cl)c1 | 46.1 µM |

| SMILES | AC50 |
| --- | --- |
| CNC(=O)c1ccsc1NC(=O)c1ccc(S(=O)(=O)N2CCc3ccccc32)cc1 | 2.19 µM |
| COC(=O)c1cc(C(=O)Cc2ccccc2)c[nH]1 | > 100 µM |
| CCN(CC)CC(=O)Nc1sc2c(c1C(=O)c1ccccc1OC)CCC2 | 48.3 µM |
| COc1ccc(C2CC(=O)CCN2S(=O)(=O)c2ccc(C)cc2)cc1 (stereo unspecified) | 3.86 µM |
| CCc1cccc(NC(=O)c2ccc3c(=O)n4c(nc3c2)CCCCC4)c1 | > 100 µM |
| Cc1noc2ncnc(SCc3ccc(C(F)(F)F)cc3)c12 | > 100 µM |
| Cc1cc(C)c(OCCN(C)Cc2ccccc2)c(Br)c1 | > 100 µM |
| COC(=O)c1sccc1NC(=O)Cn1nnc(-c2ccccc2C)n1 | 45.1 µM |
| COc1ccc(OC)c(N(CC(=O)Nc2ccccc2F)S(=O)(=O)c2ccccc2)c1 | 4.66 µM |
| O=C(OCC1COc2ccccc2O1)c1ccccc1F (stereo unspecified) | > 100 µM |
| O=C(Nc1nc(-c2ccc3ccccc3c2)cs1)C1CCN(S(=O)(=O)c2cccs2)CC1 | > 100 µM |
| Brc1ccccc1Cn1c(-c2cncs2)nc2ccccc21 | > 100 µM |
| CSc1ccc(CN(C)C(=O)C(c2ccccc2)c2ccccc2)cc1 | 50.1 µM |
| CN1CCN(CC(=O)c2cc(C(C)(C)C)c(O)c(C(C)(C)C)c2)CC1 | > 100 µM |
| Cc1ccccc1-c1nc(CS(=O)(=O)CC(=O)N2CCCCC2)c(C)o1 | > 100 µM |
| [O-][n+]1ccccc1/C=C/c1ccccc1 | > 100 µM |
| COC(C(=O)Nc1ccnn1C1CCN(Cc2ccc(Cl)s2)CC1)c1ccccc1 (stereo unspecified) | > 100 µM |
| O=C(O)c1cccnc1SCc1ccccc1Cl | 35.9 µM |
| Fc1ccc(-c2nc3ccc(Cl)cn3c2Cc2cccc(Cl)c2)cc1 | > 100 µM |
| Cc1ccc(NC(=O)CN(C)S(=O)(=O)c2cccc3cccnc23)cc1F | > 100 µM |
| CCCc1nc2oc3c(NCCCN(C)C)ncnc3c2c2c1CCCC2 | 6.74 µM |
| CCOc1cc(/C=C(\CC(=O)O)c2nc3ccccc3s2)ccc1OC | > 100 µM |
| COc1ccc(-c2csc(NC(=O)c3ccccc3S(C)(=O)=O)n2)cc1 | > 100 µM |

| SMILES | AC50 |
| --- | --- |
| CC1Sc2ccc(S(=O)(=O)NCc3ccccc3)cc2NC1=O (stereo unspecified) | > 100 µM |
| Cc1noc(NS(=O)(=O)c2ccc(NC(=O)c3cc(-c4ccccc4Cl)nc4ccccc34)cc2)c1C | 45.6 µM |
| O=C1c2ccccc2CSc2c(O)cccc21 | 45.9 µM |
| O=C(Nc1nnc(Cc2ccc(Cl)cc2)s1)c1ccncc1 | > 100 µM |
| O=C1N2c3ccccc3CCc3cccc(c32)C1(O)C(F)(F)F (stereo unspecified) | 43.6 µM |
| CSc1nnnn1-c1ccc(Cl)cc1 | > 100 µM |
| Oc1ccc(-c2csc(Nc3ncccn3)n2)cc1 | > 100 µM |
| CCCCn1c(=O)[nH]c(=O)c2c1nc(-c1ccccc1F)n2Cc1ccccc1 | > 100 µM |
| CCOc1ccc(NC(=O)CCc2nnc3ccc(N4CCC(C)CC4)nn23)cc1 | 51.2 µM |
| O=C(O)c1cc2ccc3ccccc3c2[nH]1 | 7.13 µM |
| O=C1c2ccccc2C(c2nnnn2C2CCCCC2)N1CCc1ccc(O)cc1 (stereo unspecified) | > 100 µM |
| COc1ccc(C2CC(c3cccs3)=Nc3ccccc3S2)cc1 (stereo unspecified) | 1.44 µM |
| CCCCNC(=O)C[C@@H]1C[C@@]2(C(=O)OC)CCCCC=C2N(Cc2ccccc2)C1=O | > 100 µM |
| O=S(=O)(NCc1ccc2c(c1)OCO2)c1ccc2c(c1)oc1ccccc12 | 52.3 µM |
| COc1ccc(CNC(=O)c2sc3nc4c(c(C(F)(F)F)c3c2N)CCC4)cc1OC | 13.9 µM |
| CC(C)(C)N(Cc1ccccc1)C(=O)COC(=O)Cn1cnc2ccccc2c1=O | > 100 µM |
| O=C(COC(=O)CCC(=O)c1ccc(F)cc1)NCCc1ccccc1 | > 100 µM |
| COc1ccc2c(c1)c(C(C)=O)c(C)n2CCc1ccc(OC)c(OC)c1 | 51 µM |
| CSc1cccc(NC(=O)CCc2ccccc2)c1 | 20 µM |
| NC(=O)c1ccccc1OCCOc1ccc(Br)cc1 | > 100 µM |
| Cc1cc(-c2ccc(C)c(S(=O)(=O)NCC3CCN(Cc4ccccc4F)CC3)c2)on1 | > 100 µM |
| O=C(c1ccc(-n2cccn2)cc1)N1CCc2ccccc2C1 | 52.2 µM |
